Data: article PMC4091617 (Chemical communications (Cambridge, England), 2011)

Target: T1, DhpI (Streptomyces luridus, UniProt D7PC21)
T1 sequence (D7PC21 1-218): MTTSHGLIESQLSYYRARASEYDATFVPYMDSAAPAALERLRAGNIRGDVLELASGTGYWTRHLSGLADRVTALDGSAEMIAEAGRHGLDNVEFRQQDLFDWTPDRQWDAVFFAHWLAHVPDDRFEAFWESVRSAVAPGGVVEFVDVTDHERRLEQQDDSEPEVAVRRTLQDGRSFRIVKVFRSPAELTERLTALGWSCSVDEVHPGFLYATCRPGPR
Assay: in vitro O-methylation
Assay type: biochemical
Details: SAM as methyl donor; Pfs present

CC(=O)N(O)CCCP(=O)(O)O [FR-900098]
in vitro O-methylation: These four phosphonates were used as the basis; each was methylated by DhpI
